Experiments:
Format in all cases: in vivo
[1] = system: ivy-leaved morning glory (Ipomoea hederacea); experiment: Test G Post-Emergence Protocol; details: Ipomoea, post-emergence, 312 h, read-out: Morningglory, Ivy-leaved damage rating; for pest or weed control at 15.625 g/ha: 15.625 g ai/ha, evaluated after 13 days (100=total damage to plant; 0=no damage to plant); for pest or weed control at 62.5 g/ha: 62.5 g ai/ha; for pest or weed control at 62.5 g/ha / pest or weed control at 250 g/ha: evaluated after 13 days, 100=total damage to plant, 0=no damage to plant; for pest or weed control at 250 g/ha: 250 g ai/ha
Procedure, shortened: (§1)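 Scores run 0 (no damage) to 100 (total damage) and were taken 13 days after spraying. Plants had been raised in pots for 8 days under glasshouse control (24/16 °C, 14 h photoperiod, 65% humidity) and then treated at 15.625, 62.5 or 250 g/ha.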

[2] = system: velvetleaf (Abutilon theophrasti); experiment: Test G Post-Emergence Protocol; details: Abutilon theophrasti, post-emergence, 312 h, read-out: Velvetleaf damage rating; for pest or weed control at 15.625 g/ha: 15.625 g ai/ha, evaluated after 13 days (100=total damage to plant; 0=no damage to plant); for pest or weed control at 62.5 g/ha: 62.5 g ai/ha; for pest or weed control at 62.5 g/ha / pest or weed control at 250 g/ha: evaluated after 13 days, 100=total damage to plant, 0=no damage to plant; for pest or weed control at 250 g/ha: 250 g ai/ha
Procedure, shortened: as §1

[3] = system: giant foxtail (Setaria faberi); experiment: Test G Post-Emergence Protocol; details: Setaria faberi, post-emergence, 312 h, read-out: Foxtail, Giant damage rating; for pest or weed control at 15.625 g/ha: 15.625 g ai/ha, evaluated after 13 days (100=total damage to plant; 0=no damage to plant); for pest or weed control at 62.5 g/ha: 62.5 g ai/ha; for pest or weed control at 62.5 g/ha / pest or weed control at 250 g/ha: evaluated after 13 days, 100=total damage to plant, 0=no damage to plant; for pest or weed control at 250 g/ha: 250 g ai/ha
Procedure, shortened: as §1

corn (Zea mays) [4] = experiment: Test G Post-Emergence Protocol; details: Zea mays, post-emergence, 312 h, read-out: Corn damage rating; for plant injury at 15.625 g/ha: 15.625 g ai/ha, evaluated after 13 days (100=total damage to plant; 0=no damage to plant); for plant injury at 62.5 g/ha: 62.5 g ai/ha; for plant injury at 62.5 g/ha / plant injury at 250 g/ha: evaluated after 13 days, 100=total damage to plant, 0=no damage to plant; for plant injury at 250 g/ha: 250 g ai/ha
Procedure, shortened: as §1

[5] = system: barnyardgrass (Echinochloa crus-galli); experiment: Test G Post-Emergence Protocol; details: Echinochloa crus-galli, post-emergence, 312 h, read-out: Barnyardgrass damage rating; for pest or weed control at 15.625 g/ha: 15.625 g ai/ha, evaluated after 13 days (100=total damage to plant; 0=no damage to plant); for pest or weed control at 62.5 g/ha: 62.5 g ai/ha; for pest or weed control at 62.5 g/ha / pest or weed control at 250 g/ha: evaluated after 13 days, 100=total damage to plant, 0=no damage to plant; for pest or weed control at 250 g/ha: 250 g ai/ha
Procedure, shortened: as §1

[6] = system: redroot pigweed (Amaranthus retroflexus); experiment: Test G Post-Emergence Protocol; details: Amaranthus retroflexus, post-emergence, 312 h, read-out: Pigweed, Redroot damage rating; for pest or weed control at 15.625 g/ha: 15.625 g ai/ha, evaluated after 13 days (100=total damage to plant; 0=no damage to plant); for pest or weed control at 62.5 g/ha: 62.5 g ai/ha; for pest or weed control at 62.5 g/ha / pest or weed control at 250 g/ha: evaluated after 13 days, 100=total damage to plant, 0=no damage to plant; for pest or weed control at 250 g/ha: 250 g ai/ha
Procedure, shortened: as §1

[7] = system: ivy-leaved morning glory (Ipomoea hederacea); experiment: Test G Pre-Emergence Protocol; details: Ipomoea, pre-emergence, 312 h, evaluated after 13 days; for pest or weed control at 15.625 g/ha: 15.625 g ai/ha; for pest or weed control at 15.625 g/ha / pest or weed control at 250 g/ha: read-out: Morningglory, Ivy-leaved damage rating (100=total damage to plant; 0=no damage to plant); for pest or weed control at 62.5 g/ha: 62.5 g ai/ha, 100=total damage to plant, 0=no damage to plant, read-out: Morningglory, Ivy-leaved damage rating; for pest or weed control at 250 g/ha: 250 g ai/ha
Procedure, shortened: (§2)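 Under a 24/16° C day/night regime with 14 h light and 65% humidity, sown pots were sprayed after one day with compound (15.625, 62.5 or 250 g/ha; 50:50 acetone/water, 0.5% Tween 20). Damage was assessed visually 13 days later, 0 to 100.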

[8] = system: velvetleaf (Abutilon theophrasti); experiment: Test G Pre-Emergence Protocol; details: Abutilon theophrasti, pre-emergence, 312 h, evaluated after 13 days; for pest or weed control at 15.625 g/ha: 15.625 g ai/ha; for pest or weed control at 15.625 g/ha / pest or weed control at 250 g/ha: read-out: Velvetleaf damage rating (100=total damage to plant; 0=no damage to plant); for pest or weed control at 62.5 g/ha: 62.5 g ai/ha, 100=total damage to plant, 0=no damage to plant, read-out: Velvetleaf damage rating; for pest or weed control at 250 g/ha: 250 g ai/ha
Procedure, shortened: as §2

[9] = system: giant foxtail (Setaria faberi); experiment: Test G Pre-Emergence Protocol; details: Setaria faberi, pre-emergence, 312 h, evaluated after 13 days; for pest or weed control at 15.625 g/ha: 15.625 g ai/ha; for pest or weed control at 15.625 g/ha / pest or weed control at 250 g/ha: read-out: Foxtail, Giant damage rating (100=total damage to plant; 0=no damage to plant); for pest or weed control at 62.5 g/ha: 62.5 g ai/ha, 100=total damage to plant, 0=no damage to plant, read-out: Foxtail, Giant damage rating; for pest or weed control at 250 g/ha: 250 g ai/ha
Procedure, shortened: as §2

corn (Zea mays) [10] = experiment: Test G Pre-Emergence Protocol; details: Zea mays, pre-emergence, 312 h, evaluated after 13 days; for plant injury at 15.625 g/ha: 15.625 g ai/ha; for plant injury at 15.625 g/ha / plant injury at 250 g/ha: read-out: Corn damage rating (100=total damage to plant; 0=no damage to plant); for plant injury at 62.5 g/ha: 62.5 g ai/ha, 100=total damage to plant, 0=no damage to plant, read-out: Corn damage rating; for plant injury at 250 g/ha: 250 g ai/ha
Procedure, shortened: as §2

[11] = system: barnyardgrass (Echinochloa crus-galli); experiment: Test G Pre-Emergence Protocol; details: Echinochloa crus-galli, pre-emergence, 312 h, evaluated after 13 days; for pest or weed control at 15.625 g/ha: 15.625 g ai/ha; for pest or weed control at 15.625 g/ha / pest or weed control at 250 g/ha: read-out: Barnyardgrass damage rating (100=total damage to plant; 0=no damage to plant); for pest or weed control at 62.5 g/ha: 62.5 g ai/ha, 100=total damage to plant, 0=no damage to plant, read-out: Barnyardgrass damage rating; for pest or weed control at 250 g/ha: 250 g ai/ha
Procedure, shortened: as §2

[12] = system: redroot pigweed (Amaranthus retroflexus); experiment: Test G Pre-Emergence Protocol; details: Amaranthus retroflexus, pre-emergence, 312 h, evaluated after 13 days; for pest or weed control at 15.625 g/ha: 15.625 g ai/ha; for pest or weed control at 15.625 g/ha / pest or weed control at 250 g/ha: read-out: Pigweed, Redroot damage rating (100=total damage to plant; 0=no damage to plant); for pest or weed control at 62.5 g/ha: 62.5 g ai/ha, 100=total damage to plant, 0=no damage to plant, read-out: Pigweed, Redroot damage rating; for pest or weed control at 250 g/ha: 250 g ai/ha
Procedure, shortened: as §2

| Compound | pest or weed control at 15.625 g/ha [1] [%] | pest or weed control at 62.5 g/ha [1] [%] | pest or weed control at 250 g/ha [1] [%] | pest or weed control at 15.625 g/ha [2] [%] | pest or weed control at 62.5 g/ha [2] [%] | pest or weed control at 250 g/ha [2] [%] | pest or weed control at 15.625 g/ha [3] [%] | pest or weed control at 62.5 g/ha [3] [%] | pest or weed control at 250 g/ha [3] [%] | plant injury at 15.625 g/ha (corn (Zea mays) [4]) [%] | plant injury at 62.5 g/ha (corn (Zea mays) [4]) [%] | plant injury at 250 g/ha (corn (Zea mays) [4]) [%] | pest or weed control at 15.625 g/ha [5] [%] | pest or weed control at 62.5 g/ha [5] [%] | pest or weed control at 250 g/ha [5] [%] | pest or weed control at 15.625 g/ha [6] [%] | pest or weed control at 62.5 g/ha [6] [%] | pest or weed control at 250 g/ha [6] [%] | pest or weed control at 15.625 g/ha [7] [%] | pest or weed control at 62.5 g/ha [7] [%] | other results |
| --- | --- | --- | --- | --- | --- | --- | --- | --- | --- | --- | --- | --- | --- | --- | --- | --- | --- | --- | --- | --- | --- |
| Cc1nc(Cl)ccc1NC(=O)[C@H]1C(=O)N(C)C[C@@H]1c1ccc(C(F)(F)F)cc1 (racemic) [Compound 1825] | 0 | 0 | 20 | 0 | 0 | 20 | 0 | 0 | 50 | 0 | 0 | 10 | 0 | 0 | 0 | 0 | 0 | 10 | 0 | 0 | pest or weed control at 250 g/ha [7]: 0%; pest or weed control at 15.625 g/ha [8]: 0%; pest or weed control at 62.5 g/ha [8]: 0%; pest or weed control at 250 g/ha [8]: 0%; pest or weed control at 15.625 g/ha [9]: 0%; pest or weed control at 62.5 g/ha [9]: 20%; pest or weed control at 250 g/ha [9]: 70%; plant injury at 15.625 g/ha (corn (Zea mays) [10]): 0%; plant injury at 62.5 g/ha (corn (Zea mays) [10]): 0%; plant injury at 250 g/ha (corn (Zea mays) [10]): 0%; pest or weed control at 15.625 g/ha [11]: 0%; pest or weed control at 62.5 g/ha [11]: 0%; pest or weed control at 250 g/ha [11]: 0%; pest or weed control at 15.625 g/ha [12]: 0%; pest or weed control at 62.5 g/ha [12]: 0%; pest or weed control at 250 g/ha [12]: 0% |
| CON1C[C@H](c2ccc(C(F)(F)F)cc2)[C@@H](C(=O)Nc2cccc(F)c2F)C1=O (racemic) [Compound 1836] | 20 | 20 | 40 | 10 | 20 | 50 | 50 | 70 | 70 | 0 | 10 | 70 | 0 | 70 | 80 | 20 | 60 | 70 | 10 | 20 | pest or weed control at 250 g/ha [7]: 30%; pest or weed control at 15.625 g/ha [8]: 0%; pest or weed control at 62.5 g/ha [8]: 0%; pest or weed control at 250 g/ha [8]: 30%; pest or weed control at 15.625 g/ha [9]: 50%; pest or weed control at 62.5 g/ha [9]: 80%; pest or weed control at 250 g/ha [9]: 90%; plant injury at 15.625 g/ha (corn (Zea mays) [10]): 10%; plant injury at 62.5 g/ha (corn (Zea mays) [10]): 10%; plant injury at 250 g/ha (corn (Zea mays) [10]): 80%; pest or weed control at 15.625 g/ha [11]: 10%; pest or weed control at 62.5 g/ha [11]: 70%; pest or weed control at 250 g/ha [11]: 80%; pest or weed control at 15.625 g/ha [12]: 0%; pest or weed control at 62.5 g/ha [12]: 50%; pest or weed control at 250 g/ha [12]: 50% |
| CN1C[C@H](c2ccc(Cl)cc2)[C@@H](C(=O)Nc2cccnc2F)C1=O [Compound 1810] | 20 | 60 | 20 | 20 | 30 | 40 | 20 | 80 | 80 | 0 | 0 | 50 | 0 | 60 | 80 | 0 | 10 | 60 | 0 | 30 | pest or weed control at 250 g/ha [7]: 70%; pest or weed control at 15.625 g/ha [8]: 0%; pest or weed control at 62.5 g/ha [8]: 40%; pest or weed control at 250 g/ha [8]: 70%; pest or weed control at 15.625 g/ha [9]: 80%; pest or weed control at 62.5 g/ha [9]: 90%; pest or weed control at 250 g/ha [9]: 90%; plant injury at 15.625 g/ha (corn (Zea mays) [10]): 20%; plant injury at 62.5 g/ha (corn (Zea mays) [10]): 30%; plant injury at 250 g/ha (corn (Zea mays) [10]): 90%; pest or weed control at 15.625 g/ha [11]: 60%; pest or weed control at 62.5 g/ha [11]: 90%; pest or weed control at 250 g/ha [11]: 90%; pest or weed control at 15.625 g/ha [12]: 0%; pest or weed control at 62.5 g/ha [12]: 40%; pest or weed control at 250 g/ha [12]: 80% |
